Results published in PMC6643147 (International Journal of Biological Sciences, 2019).

Molecular target: PI3Kα (Homo sapiens, UniProt P42336)
Experiment: cell-free ADP-Glo kinase assay with recombinant PI3Kα and poly-EY substrate
Format: biochemical

Chain of PI3Kα (P42336 whole entry): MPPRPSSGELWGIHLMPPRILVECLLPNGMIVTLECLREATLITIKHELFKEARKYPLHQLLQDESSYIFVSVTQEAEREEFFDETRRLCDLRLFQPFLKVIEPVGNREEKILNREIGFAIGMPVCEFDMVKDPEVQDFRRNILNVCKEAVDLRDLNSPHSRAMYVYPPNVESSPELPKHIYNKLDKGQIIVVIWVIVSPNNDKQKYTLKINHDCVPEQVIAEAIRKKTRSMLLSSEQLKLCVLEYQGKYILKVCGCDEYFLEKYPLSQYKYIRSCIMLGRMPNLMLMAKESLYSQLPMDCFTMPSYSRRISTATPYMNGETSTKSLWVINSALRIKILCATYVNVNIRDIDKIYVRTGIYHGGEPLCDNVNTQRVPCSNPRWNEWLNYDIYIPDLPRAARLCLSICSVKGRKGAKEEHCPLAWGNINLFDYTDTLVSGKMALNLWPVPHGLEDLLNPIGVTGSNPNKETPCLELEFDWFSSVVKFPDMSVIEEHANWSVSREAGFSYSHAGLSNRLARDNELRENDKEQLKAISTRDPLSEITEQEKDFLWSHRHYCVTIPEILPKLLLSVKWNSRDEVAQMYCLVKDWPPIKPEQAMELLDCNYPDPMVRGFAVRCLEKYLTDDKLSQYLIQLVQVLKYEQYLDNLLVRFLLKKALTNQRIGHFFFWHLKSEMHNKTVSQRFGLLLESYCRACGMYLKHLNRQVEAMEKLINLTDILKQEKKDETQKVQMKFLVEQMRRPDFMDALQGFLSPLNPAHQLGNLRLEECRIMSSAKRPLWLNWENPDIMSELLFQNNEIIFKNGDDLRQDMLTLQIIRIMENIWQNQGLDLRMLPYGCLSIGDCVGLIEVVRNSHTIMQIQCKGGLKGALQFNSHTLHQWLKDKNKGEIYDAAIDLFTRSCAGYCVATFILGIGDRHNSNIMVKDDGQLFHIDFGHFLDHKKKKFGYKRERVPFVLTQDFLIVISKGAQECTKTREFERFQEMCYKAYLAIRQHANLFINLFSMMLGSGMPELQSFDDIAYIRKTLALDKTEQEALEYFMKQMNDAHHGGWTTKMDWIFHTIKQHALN
Chain of PI3Kα (P27986 2-724, further chain): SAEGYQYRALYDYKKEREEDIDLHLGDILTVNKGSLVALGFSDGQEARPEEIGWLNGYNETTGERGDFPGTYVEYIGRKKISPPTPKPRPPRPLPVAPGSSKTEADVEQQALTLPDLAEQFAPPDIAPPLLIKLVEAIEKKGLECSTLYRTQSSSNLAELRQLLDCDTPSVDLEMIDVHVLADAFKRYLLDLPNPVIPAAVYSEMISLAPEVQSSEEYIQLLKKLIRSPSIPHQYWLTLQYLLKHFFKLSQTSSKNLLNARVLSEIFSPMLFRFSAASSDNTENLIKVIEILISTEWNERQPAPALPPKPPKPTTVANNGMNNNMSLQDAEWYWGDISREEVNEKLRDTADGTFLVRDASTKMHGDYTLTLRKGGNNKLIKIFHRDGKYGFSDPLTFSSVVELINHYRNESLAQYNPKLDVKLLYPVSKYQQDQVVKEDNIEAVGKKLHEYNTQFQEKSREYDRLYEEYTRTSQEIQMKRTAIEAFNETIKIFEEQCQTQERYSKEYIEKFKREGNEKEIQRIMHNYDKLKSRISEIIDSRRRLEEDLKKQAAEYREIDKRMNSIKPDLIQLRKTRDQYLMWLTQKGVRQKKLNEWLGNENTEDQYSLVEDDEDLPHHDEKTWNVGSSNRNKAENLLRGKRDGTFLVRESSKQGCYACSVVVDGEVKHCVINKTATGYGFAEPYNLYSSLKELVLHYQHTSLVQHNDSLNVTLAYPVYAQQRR

- IC50: 127 ± 5.87 nM
Structure (SMILES): OCCN1CCN(CC/C=C2/c3ccccc3Sc3ccc(C(F)(F)F)cc32)CC1 [flupentixol]
